Calls of active or inactive are those of the source. The calls are words filed in the database; no cut-off is given here. Numbered stars: 1 amine (or outer) side, 2 acyl side, 3 side chain; on linkers, the order of the positions; unused ones are H or OH. Bridge positions count the residues as written; N and C are the ends. Square brackets hold non-standard residues; d marks the D form. Peptide text beside a SMILES is read from it. I, II: the chains in the order shown. Actinocin(9to1) = Cc1c2oc3c(C)ccc(C(=O)[*:1])c3nc-2c(C(=O)[*:2])c(N)c1=O; NMeV = CN[C@H](C(=O)O)C(C)C; Sar = CNCC(=O)O
Tests used:
DLKP cell line [1] = assay: Synergism with sulindac in DLKP cells; assay type: functional
A549 [2] = assay: Synergism with sulindac in A549 cells; assay type: functional
[3] = Relative resistance is the ratio of IC50 values of drug with JTV-519 to that without the reversing agent; assay type: functional
DLKP cell line [4] = assay: Synergism with tolmedin in DLKP cells; assay type: functional
A549 [5] = assay: Synergism with indomethacin in A549 cells; assay type: functional
NCI-H69 [6] = assay: Percentage inhibition of cell growth in the presence of compound in H69/LX4 cells with Clofazemine as inhibitor; reversal of inhibition; assay type: functional, cell-based
NCI-H69 [7] = assay: Percentage inhibition of cell growth in the presence of compound in H69/LX4 cells with as GG918 inhibitor; reversal of inhibition; assay type: functional, cell-based
NCI-H69 [8] = assay: Percentage inhibition of cell growth in the presence of compound in H69/LX4 cells with B669 as inhibitor; reversal of inhibition; assay type: functional, cell-based
NCI-H69 [9] = assay: Percentage inhibition of cell growth in the presence of compound in H69/LX4 cells with verapamil as inhibitor; reversal of inhibition; assay type: functional, cell-based
DLKP cell line [10] = assay: Synergism with indomethacin in DLKP cells; assay type: functional
[11] = Fold reduction in minimum inhibitory concentration of antibiotic in presence of Reserpine; assay type: functional
[12] = Fold reduction in minimum inhibitory concentration of antibiotic in presence of GG918; assay type: functional
Lycopus europaeus = assay: Inhibitory activity against Lycopus europeus; no inhibitory activity; assay type: functional, organism-based
A549 [13] = assay: Antagonism of indomethacin in A549 cells; assay type: functional
DLKP cell line [14] = assay: Antagonism of indomethacin in DLKP cells; assay type: functional
A549 [15] = assay: Antagonism of sulindac in A549 cells; assay type: functional
DLKP cell line [16] = assay: Antagonism of sulindac in DLKP cells; assay type: functional
[17] = Inhibitory activity in presence of VX-710 inhibitor; successful in clinical trials; assay type: functional
A549 [18] = assay: Antagonism of tolmetin in A549 cells; assay type: functional
[19] = Dose modifying factor expressed as the ratio of IC50 for the chemotherapy drug to IC50 for drug + GG918; Range = 1.2-1850; assay type: functional
NCI-H69 [20] = assay: Approximate percentage for level of inhibition of cell growth in presence and absence of inhibitor (Value of drug + alpha Tochoferol / Value of drug); assay type: functional
NCI-H69 [21] = assay: Approximate percentage for level of inhibition of cell growth in presence and absence of inhibitor (Value of drug + Verapamil / Value of drug); assay type: functional
NCI-H69 [22] = assay: Percentage inhibition of cell growth in the presence of compound and in the absence of […] in H69/LX4 cells with clofazimine MDR inhibitor; assay type: functional
[23] = Relative inhibition (IC50) in presence and absence of reserpine; assay type: functional
[24] = Fold reduction in fluorescence in presence and absence of MC-002595 at 128 mg/mL; assay type: functional
A549 [25] = assay: Synergism with tolmetin in A549 cells; assay type: functional
NCI-H69 [26] = assay: Approximate percentage for level of inhibition of cell growth in presence and absence of inhibitor (Value of drug + B669 / Value of drug); assay type: functional
NCI-H69 [27] = assay: Approximate percentage for level of inhibition of cell growth in presence and absence of inhibitor (Value of drug + GG918 / Value of drug); assay type: functional
NCI-H69 [28] = assay: Approximate percentage for level of inhibition of cell growth in presence and absence of inhibitor (Value of drug + Clofazimine / Value of drug); assay type: functional
[29] = Inhibitory concentration in presence of MDR inhibitor XR-9576; assay type: functional
[30] = Dose modifying factor expressed as the ratio of IC50 for the chemotherapy drug to IC50 for drug + GG918; Range = 1.0-23; assay type: functional

`CC[C@]1(O)C[C@H]2CN(CCc3c([nH]c4ccccc34)[C@@](C(=O)OC)(c3cc4c(cc3OC)N(C=O)[C@H]3[C@@](O)(C(=O)OC)[C@H](OC(C)=O)[C@]5(CC)C=CCN6CC[C@]43[C@@H]65)C2)C1` [VINCRISTINE] showed a Combination_index (DLKP cell line [1]) of 0.241, a Combination_index (A549 [2]) of 0.462 and a Ratio [3] of 3.7. It also gave a Combination_index (DLKP cell line [4]) of 0.593 and a Combination_index (A549 [5]) of 0.301.
In the case of `Cc1c(C)c2c(c(C)c1O)CC[C@@](C)(CCC[C@H](C)CCC[C@H](C)CCCC(C)C)O2`, the inhibition (NCI-H69 [6]) is reported as “reversal of inhibition”, the inhibition (NCI-H69 [7]) is reported as “reversal of inhibition” and the inhibition (NCI-H69 [8]) is reported as “reversal of inhibition”. For the same compound, the inhibition (NCI-H69 [9]) was “reversal of inhibition”.
With `COc1cc([C@@H]2c3cc4c(cc3[C@@H](O[C@@H]3O[C@@H]5CO[C@@H](C)O[C@H]5[C@H](O)[C@H]3O)[C@H]3COC(=O)[C@H]23)OCO4)cc(OC)c1O` [ETOPOSIDE] the Combination_index (DLKP cell line [1]) was 0.463, the Combination_index (DLKP cell line [10]) was 0.534 and the Combination_index (A549 [2]) was 0.681. For the same compound, the Ratio [3] was 2.6, the Combination_index (DLKP cell line [4]) was 0.745 and the Combination_index (A549 [5]) was 0.916.
For `CCn1cc(C(=O)O)c(=O)c2cc(F)c(N3CCNCC3)cc21`, the Fold reduction [11] was 4, the Fold reduction [12] was 8 and the inhibition (Lycopus europaeus) was “inactive”.
Work on `CC(=O)O[C@H]1C(=O)[C@@]2(C)[C@H]([C@H](OC(=O)c3ccccc3)[C@]3(O)C[C@H](OC(=O)[C@H](O)[C@@H](NC(=O)c4ccccc4)c4ccccc4)C(C)=C1C3(C)C)[C@]1(OC(C)=O)CO[C@@H]1C[C@@H]2O` [PACLITAXEL] yielded a Combination_index (A549 [13]) of 2.234, a Combination_index (DLKP cell line [14]) of 1.227 and a Combination_index (A549 [15]) of 1.539. The Combination_index (DLKP cell line [16]) was 1.233, the inhibition [17] was “Active” and the Combination_index (A549 [18]) was 1.349.
Work on `O=C1c2c(O)ccc(O)c2C(=O)c2c(NCCNCCO)ccc(NCCNCCO)c21` yielded a Ratio [19] of 1.2.
Compound `Cc1ccc(NC(=O)c2ccc(CN3CCN(C)CC3)cc2)cc1Nc1nccc(-c2cccnc2)n1` has a Ratio [3] of 3.1.
Compound `CC[C@]1(O)C[C@@H]2CN(CCc3c([nH]c4ccccc34)[C@@](C(=O)OC)(c3cc4c(cc3OC)N(C)[C@H]3[C@@](O)(C(=O)OC)[C@H](OC(C)=O)[C@]5(CC)C=CCN6CC[C@]43[C@@H]65)C2)C1` [VINBLASTINE] has a Reduction (NCI-H69 [20]) of about 95%, a Reduction (NCI-H69 [21]) of about 88% and a Reduction (NCI-H69 [22]) of about 94%. The Fold increase [23] was 8.
In the case of `c1ccc(Nc2cccc3ccccc23)cc1`, the Fold reduction [24] is reported as 2.3.
For `COc1cccc2c1C(=O)c1c(O)c3c(c(O)c1C2=O)C[C@@](O)(C(=O)CO)C[C@@H]3O[C@H]1C[C@H](N)[C@H](O)[C@H](C)O1` [DOXORUBICIN], the Combination_index (A549 [25]) was 0.357, the Reduction (NCI-H69 [20]) was 0% and the Combination_index (DLKP cell line [1]) was 0.449. The Reduction (NCI-H69 [26]) was about 31%, the Reduction (NCI-H69 [21]) was about 33% and the Reduction (NCI-H69 [27]) was about 58%. The Combination_index (A549 [2]) was 0.368, the Combination_index (DLKP cell line [4]) was 0.467 and the Combination_index (A549 [5]) was 0.251. For the same compound, the Fold increase [23] was 2.9 and the Reduction (NCI-H69 [28]) was about 40%.
Work on `COc1c(N2C[C@@H]3CCCN[C@@H]3C2)c(F)cc2c(=O)c(C(=O)O)cn(C3CC3)c12` yielded a Fold reduction [11] of 2 and a Fold reduction [12] of 0.
`COc1cccc2c1C(=O)c1c(O)c3c(c(O)c1C2=O)C[C@@](O)(C(C)=O)C[C@@H]3O[C@H]1C[C@H](N)[C@H](O)[C@H](C)O1` [DAUNORUBICIN] showed an IC50 [29] of 38.2 nM.
Compound `Cc1c2oc3c(C)ccc(C(=O)N[C@@H]4C(=O)N[C@H](C(C)C)C(=O)N5CCC[C@H]5C(=O)N(C)CC(=O)N(C)[C@@H](C(C)C)C(=O)O[C@@H]4C)c3nc-2c(C(=O)N[C@@H]2C(=O)N[C@H](C(C)C)C(=O)N3CCC[C@H]3C(=O)N(C)CC(=O)N(C)[C@@H](C(C)C)C(=O)O[C@@H]2C)c(N)c1=O` (I: T[dV]P[Sar][NMeV] / II: T[dV]P[Sar][NMeV]; ester I:1-I:C, II:1-II:C; linker I:N-II:N via Actinocin(9to1)) has a Ratio [3] of 3.
In the case of `CC[C@@]1(O)C(=O)OCc2c1cc1n(c2=O)Cc2cc3c(CN(C)C)c(O)ccc3nc2-1`, the Ratio [30] is reported as 1.
`O=C(O)c1cn(C2CC2)c2cc(N3CCNCC3)c(F)cc2c1=O` showed a Fold reduction [11] of 8 and a Fold reduction [12] of 8.

From ChEMBL document CHEMBL1146678, “Inhibitors of multidrug resistance (MDR) have affinity for MDR substrates” (Bioorg Med Chem Lett, 2004)
